For this test, the target named is Serine/threonine-protein kinase pim-2 (Homo sapiens, UniProt Q9P1W9). As to the kind of experiment: Pim Kinase Dose-Response Assay. The note with it: pH 7.5; 22 °C.

The structures appear in SMILES notation.

Chain of Serine/threonine-protein kinase pim-2 (Q9P1W9 whole entry): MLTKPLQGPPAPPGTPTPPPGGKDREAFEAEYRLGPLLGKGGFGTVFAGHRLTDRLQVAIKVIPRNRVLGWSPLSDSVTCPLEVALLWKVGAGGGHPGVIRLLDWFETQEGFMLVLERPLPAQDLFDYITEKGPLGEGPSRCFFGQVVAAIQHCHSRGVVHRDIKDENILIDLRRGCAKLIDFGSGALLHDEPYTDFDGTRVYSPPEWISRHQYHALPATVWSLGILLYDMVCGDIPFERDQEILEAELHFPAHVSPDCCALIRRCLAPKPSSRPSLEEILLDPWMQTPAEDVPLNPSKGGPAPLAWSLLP
Experimental: The activity of Pim kinase was measured in a homogeneous luciferase assay using GST-Pim, biotinylated peptide substrate and a luciferin-luciferase detection reagent to quantify residual ATP. Test compounds were serially diluted for the 10-point concentration response. […] Following incubation, ATP detection reagent was added to the assay plates and the relative light unit (RLU) signal was measured on the Analyst (Molecular Devices) in luminescence mode. The RLU signals were converted to percent of control in dose-response curves. The IC50 was determined as the inflection point parameter.

As a reminder, the IC50 is the concentration that gives 50% inhibition. As to `CN1CCCN(c2cncc(-c3cccc(C=Cc4nnn[nH]4)c3)n2)CC1` [1-methyl-4-(6-{3-[(E)-2-(1H-1,2,3,4-tetrazol-5-yl)ethenyl]phenyl}pyrazin-2-yl)-1,4-diazepane], the IC50 is 160 nM.

In turn, `CN1CCCN(c2cnccn2)CC1` [1-methyl-4-(pyrazin-2-yl)-1,4-diazepane] showed an IC50 of more than 8000 nM.

The record behind these values is BindingDB's records for doi:10.1021/jm801242y (Boehringer Ingelheim Pharmaceuticals, 2009).
